Data published in the CheMixHub ionic liquid set.
± gives the uncertainty stated by the source.

Experiment: xn = mol fraction of the nth substance listed

CCCCCCCCCCCCCC[n+]1ccccc1.O=C([O-])C(O)c1ccccc1 + CC(C)C[C@H](N)C(=O)O + O
electrical conductivity [S/m], 101 kPa
Conditions	293.15 K	298.15 K	303.15 K	308.15 K	313.15 K
x1 = 4.89e-06, x2 = 0.0009002	0.00294 ± 0.00079	0.00331 ± 0.00088	0.00369 ± 0.00098	0.0041 ± 0.0011	0.0045 ± 0.0012
x1 = 5.65e-06, x2 = 0.001799	0.00333 ± 0.0007	0.00365 ± 0.00077	0.004 ± 0.00084	0.00436 ± 0.00095	0.0047 ± 0.001
x1 = 6.85e-06, x2 = 0	0.00248 ± 0.00074	0.00278 ± 0.00083	0.00309 ± 0.00092	0.0034 ± 0.001	0.0037 ± 0.0011
x1 = 1.069e-05, x2 = 0.0009002	0.00459 ± 0.00073	0.0052 ± 0.00081	0.00582 ± 0.00091	0.0064 ± 0.001	0.0071 ± 0.0011
x1 = 1.13e-05, x2 = 0.001799	0.00474 ± 0.00073	0.00522 ± 0.00082	0.00572 ± 0.00089	0.0065 ± 0.001	0.0071 ± 0.0011
x1 = 1.424e-05, x2 = 0	0.00472 ± 0.00079	0.00529 ± 0.00089	0.00587 ± 0.00099	0.0065 ± 0.0011	0.0071 ± 0.0012
x1 = 1.54e-05, x2 = 0.0009002	0.0059 ± 0.00085	0.00666 ± 0.00096	0.0074 ± 0.001	0.0083 ± 0.0012	0.0091 ± 0.0013
x1 = 1.695e-05, x2 = 0.001799	0.00622 ± 0.00087	0.00689 ± 0.00097	0.0075 ± 0.0011	0.0086 ± 0.0012	0.0093 ± 0.0013
x1 = 2.084e-05, x2 = 0.0009002	0.00743 ± 0.00094	0.0084 ± 0.0011	0.0093 ± 0.0012	0.0104 ± 0.0013	0.0114 ± 0.0014
x1 = 2.126e-05, x2 = 0	0.00671 ± 0.0009	0.0076 ± 0.001	0.0084 ± 0.0011	0.0093 ± 0.0013	0.0101 ± 0.0014
x1 = 2.205e-05, x2 = 0.001799	0.0077 ± 0.00098	0.0086 ± 0.0011	0.0094 ± 0.0012	0.0106 ± 0.0013	0.0116 ± 0.0015
x1 = 2.519e-05, x2 = 0.0009002	0.0086 ± 0.001	0.0097 ± 0.0011	0.0107 ± 0.0013	0.012 ± 0.0014	0.0132 ± 0.0015
x1 = 2.733e-05, x2 = 0.001799	0.0091 ± 0.0011	0.0102 ± 0.0012	0.0111 ± 0.0013	0.0125 ± 0.0015	0.0137 ± 0.0016
x1 = 2.811e-05, x2 = 0	0.0086 ± 0.001	0.0097 ± 0.0012	0.0108 ± 0.0013	0.0122 ± 0.0015	0.0131 ± 0.0016
x1 = 2.972e-05, x2 = 0.0009002	0.0098 ± 0.0011	0.0111 ± 0.0013	0.0124 ± 0.0015	0.0138 ± 0.0016	0.0152 ± 0.0018
x1 = 3.28e-05, x2 = 0.001799	0.0103 ± 0.0011	0.0116 ± 0.0013	0.0129 ± 0.0014	0.0144 ± 0.0016	0.0158 ± 0.0018
x1 = 3.46e-05, x2 = 0	0.0103 ± 0.0011	0.0116 ± 0.0013	0.0129 ± 0.0014	0.0145 ± 0.0016	0.0157 ± 0.0018
x1 = 3.552e-05, x2 = 0.0009002	0.0112 ± 0.0012	0.0126 ± 0.0014	0.0141 ± 0.0015	0.0157 ± 0.0017	0.0174 ± 0.0019
x1 = 3.863e-05, x2 = 0.001799	0.0115 ± 0.0012	0.0129 ± 0.0014	0.0144 ± 0.0015	0.016 ± 0.0017	0.0177 ± 0.0019
x1 = 4.108e-05, x2 = 0	0.0117 ± 0.0012	0.0131 ± 0.0014	0.0146 ± 0.0015	0.0161 ± 0.0017	0.0179 ± 0.0019
x1 = 4.186e-05, x2 = 0.0009001	0.0124 ± 0.0013	0.014 ± 0.0015	0.0157 ± 0.0016	0.0175 ± 0.0018	0.0194 ± 0.002
x1 = 4.41e-05, x2 = 0.001799	0.0124 ± 0.0013	0.0138 ± 0.0014	0.0155 ± 0.0016	0.0172 ± 0.0018	0.0191 ± 0.002
x1 = 4.811e-05, x2 = 0	0.0129 ± 0.0013	0.0144 ± 0.0015	0.0161 ± 0.0017	0.0179 ± 0.0019	0.0198 ± 0.0021
x1 = 4.838e-05, x2 = 0.0009001	0.0134 ± 0.0014	0.0151 ± 0.0015	0.017 ± 0.0017	0.0189 ± 0.0019	0.0211 ± 0.0022
x1 = 5.139e-05, x2 = 0.001799	0.0135 ± 0.0014	0.0152 ± 0.0016	0.0168 ± 0.0017	0.019 ± 0.002	0.021 ± 0.0022
x1 = 5.388e-05, x2 = 0	0.0137 ± 0.0014	0.0154 ± 0.0016	0.0172 ± 0.0018	0.0191 ± 0.002	0.0211 ± 0.0022
x1 = 5.509e-05, x2 = 0.0009001	0.0144 ± 0.0015	0.0162 ± 0.0016	0.018 ± 0.0018	0.0203 ± 0.0021	0.0225 ± 0.0023
x1 = 5.868e-05, x2 = 0.001799	0.0146 ± 0.0015	0.0162 ± 0.0016	0.018 ± 0.0018	0.0203 ± 0.0021	0.0225 ± 0.0023
x1 = 5.982e-05, x2 = 0	0.0145 ± 0.0015	0.0163 ± 0.0017	0.0182 ± 0.0019	0.0202 ± 0.0021	0.0224 ± 0.0023
x1 = 6.179e-05, x2 = 0.0009001	0.0152 ± 0.0016	0.0172 ± 0.0018	0.0192 ± 0.002	0.0215 ± 0.0022	0.0239 ± 0.0024
x1 = 6.559e-05, x2 = 0	0.0153 ± 0.0016	0.0172 ± 0.0018	0.0192 ± 0.0019	0.0213 ± 0.0022	0.0236 ± 0.0024
x1 = 6.56e-05, x2 = 0.001799	0.0153 ± 0.0015	0.0171 ± 0.0017	0.0192 ± 0.002	0.0216 ± 0.0022	0.0239 ± 0.0024
x1 = 6.813e-05, x2 = 0.0009001	0.0161 ± 0.0016	0.0181 ± 0.0019	0.0203 ± 0.0021	0.0227 ± 0.0023	0.0252 ± 0.0026
x1 = 7.081e-05, x2 = 0	0.016 ± 0.0016	0.018 ± 0.0018	0.02 ± 0.002	0.0223 ± 0.0023	0.0246 ± 0.0025
x1 = 7.216e-05, x2 = 0.001799	0.0161 ± 0.0016	0.0181 ± 0.0018	0.0203 ± 0.0021	0.0227 ± 0.0023	0.0252 ± 0.0026
x1 = 7.484e-05, x2 = 0.0009001	0.0169 ± 0.0017	0.0191 ± 0.0019	0.0214 ± 0.0022	0.0239 ± 0.0024	0.0266 ± 0.0027
x1 = 7.604e-05, x2 = 0	0.0167 ± 0.0017	0.0187 ± 0.0019	0.0209 ± 0.0021	0.0232 ± 0.0024	0.0258 ± 0.0026
x1 = 7.908e-05, x2 = 0.001799	0.0169 ± 0.0017	0.019 ± 0.0019	0.0214 ± 0.0022	0.0238 ± 0.0024	0.0265 ± 0.0027
x1 = 8.072e-05, x2 = 0	0.0173 ± 0.0018	0.0194 ± 0.002	0.0217 ± 0.0022	0.0241 ± 0.0024	0.0266 ± 0.0027

CCO + COP(=O)([O-])OC.Cn1cc[n+](C)c1
100 kPa, x2 = 0
Conditions	viscosity [mPa·s]
298.15 K	1.08 ± 0.01
308.15 K	0.89 ± 0.01
328.15 K	0.646 ± 0.009

CC(=O)[O-].CCC[N+]1(C)CCN(C)CC1 + CC#N
Conditions	electrical conductivity [S/m]
298 K, 101 kPa, x2 = 0.791	1.76 ± 0.04

CCCC[N+](CCCC)(CCCC)Cc1ccccc1.[Cl-] + CC(C)[C@H](N)C(=O)O + O
101 kPa
Conditions	electrical conductivity, 298.15 K [S/m]	electrical conductivity, 303.15 K [S/m]	electrical conductivity, 308.15 K [S/m]	viscosity, 298.15 K [mPa·s]	viscosity, 303.15 K [mPa·s]	viscosity, 308.15 K [mPa·s]
x2 = 1.802e-05, x1 = 1.802e-05	0.0145 ± 0.0015	0.0163 ± 0.0016	0.0169 ± 0.0017	–	0.825 ± 0.032	0.704 ± 0.032
x2 = 1.804e-05, x1 = 5.406e-05	0.0303 ± 0.003	0.0313 ± 0.0031	0.0331 ± 0.0033	–	–	–
x2 = 1.805e-05, x1 = 9.009e-05	0.0341 ± 0.0034	0.0371 ± 0.0037	0.0391 ± 0.0039	–	–	–
x2 = 4.506e-05, x1 = 1.802e-05	0.0166 ± 0.0017	0.0172 ± 0.0017	0.0185 ± 0.0019	–	0.838 ± 0.032	0.719 ± 0.032
x2 = 4.509e-05, x1 = 5.405e-05	0.0312 ± 0.0031	0.0322 ± 0.0032	0.0342 ± 0.0034	–	–	–
x2 = 4.511e-05, x1 = 9.009e-05	0.0353 ± 0.0035	0.0383 ± 0.0038	0.0406 ± 0.0041	1.296 ± 0.035	–	–
x2 = 7.21e-05, x1 = 1.802e-05	0.0185 ± 0.0019	0.0193 ± 0.0019	0.0209 ± 0.0021	–	0.851 ± 0.032	0.733 ± 0.032
x2 = 7.214e-05, x1 = 5.405e-05	0.0325 ± 0.0033	0.0335 ± 0.0034	0.0356 ± 0.0036	1.273 ± 0.035	–	–
x2 = 7.218e-05, x1 = 9.009e-05	0.0365 ± 0.0037	0.0394 ± 0.0039	0.0421 ± 0.0042	–	–	–
x2 = 9.913e-05, x1 = 1.802e-05	0.0205 ± 0.0021	0.0215 ± 0.0022	0.0234 ± 0.0023	–	0.864 ± 0.032	0.748 ± 0.032
x2 = 9.919e-05, x1 = 5.405e-05	0.0338 ± 0.0034	0.0346 ± 0.0035	0.0363 ± 0.0036	1.288 ± 0.035	–	–
x2 = 9.925e-05, x1 = 9.008e-05	0.0379 ± 0.0038	0.0409 ± 0.0041	0.0435 ± 0.0044	–	1.165 ± 0.034	–
x2 = 0.0001262, x1 = 1.802e-05	0.0222 ± 0.0022	0.0236 ± 0.0024	0.0249 ± 0.0025	–	0.878 ± 0.032	0.763 ± 0.032
x2 = 0.0001262, x1 = 5.405e-05	0.0347 ± 0.0035	0.0357 ± 0.0036	0.0377 ± 0.0038	–	–	–
x2 = 0.0001263, x1 = 9.008e-05	0.0391 ± 0.0039	0.0421 ± 0.0042	0.0447 ± 0.0045	–	–	–
x2 = 0.0001532, x1 = 1.802e-05	0.0235 ± 0.0024	0.0251 ± 0.0025	0.0266 ± 0.0027	–	–	0.779 ± 0.032
x2 = 0.0001533, x1 = 5.405e-05	0.0356 ± 0.0036	0.0368 ± 0.0037	0.0389 ± 0.0039	–	–	–
x2 = 0.0001534, x1 = 9.008e-05	0.0407 ± 0.0041	0.0435 ± 0.0044	0.0463 ± 0.0046	–	–	–
